Results as given in patent publication US20230072528A1, “METHODS FOR DISCONTINUING A TREATMENT WITH A TYROSINE KINASE INHIBITOR (TKI)” (INSERM (Institut National de la Santé et de la Recherche …, priority 2020, published 2023).

System: innate CD8(+) T-cells
Assay: Ex vivo flow cytometry of peripheral blood CD8(+) T-cell subsets in CML patients under therapy (DASA-PEGIFN phase II trial)
Design: species or system human
Conditions: for innate CD8(+) T-cell frequency (mean±SD): 3 months after initiation of therapy
Description: The phase II DASA-PEGIFN clinical trial was registered with EudraCT number 2012-003389-42. Briefly, newly diagnosed Ph^+ CP-CML patients were treated first-line with dasatinib at 100 mg/day. At 3 months, they were assigned to receive Peg-IFNα2b associated to dasatinib when platelets>100×109/L, neutrophils>1.5×10^9/L and lymphocytes<4.0×109/L counts were achieved. Venous blood was collected on heparin at several time points: diagnosis, 3, 6, 12 and 24 months after initiation of treatment Among the 61 patients receiving Dasatinib+Peg-IFNα2b therapy, we analysed samples from 40 patients. Two out of them were excluded for technical issues. See Table 1 for detailed patient's characteristics. Patients response to treatment were classified conforming to 2013 ELN criteria. Major molecular response was defined as a ratio of BCR-ABL1/ABL1≤0.1% on the international scale (IS). A ratio of BCR-ABL1/ABL1IS≤0.01% defined a molecular response of 4-log reduction or in our work a deep molecular response (DMR). All patients gave informed consent in accordance with the Declaration of Helsinki for participation in the study, which was approved by the scientific committee of the INSERM CIC-1402 (Poitiers, France) and Comité Protection Personnes Recherche Biomédicale Région Poitou Charentes (protocol number 12.10.31).
Peripheral blood mononuclear cells (PBMC) were isolated from blood samples by density gradient centrifugation (Histopaque®-1077, Sigma-Aldrich, St Louis, Mo., US), resuspended in 90% Fetal Bovine Serum (10270106, Gibco®, Thermo Fisher Scientific, Waltham, Mass., US) with 10% DMSO (D2650, Sigma-Aldrich), and cryopreserved at −80° C. or in liquid nitrogen until use.
Phenotypic analysis of cells from HD and CML patients was performed by ex vivo flow cytometry. All monoclonal antibodies (mAbs) used in this study are listed in Supplementary Table 2. The expression of the different markers was assessed by staining PBMC with appropriate combinations of mAbs. panKIR/NKG2A referred to staining with the mix of the three following antibodies from Miltenyi Biotec (Bergisch Gladbach, Germany) KIR2D, KIR3DL1/KIR3DL2 (CD158e/k) and NKG2A (CD159a). Dead cells were excluded using the Live/Dead® Fixable NearIR Dead Cell Stain kit (L10119, Invitrogen™, Thermo Fisher Scientific). For intranuclear Eomes staining, cells were permeabilized with anti-human Foxp3 staining kit according to the manufacturer's protocol (73-5776-40, eBioscience™, Thermo Fisher Scientific). Flow data were acquired on a FACSVerse flow cytometer (Becton, Dickinson & Compagny, Franklin Lakes, N.J., US) with FACSuite™ software (Becton, Dickinson & Compagny) and analyzed using FlowJo™ v10 (Becton, Dickinson & Compagny). Results are expressed as either percent positive cells or as mean fluorescence intensity (MFI).
Results are shown as box and whiskers with 5 percentile, median and 95 percentile unless indicated otherwise. All statistical data analyses were performed using GraphPad Prism v7.0 (GraphPad software, Inc). Wilcoxon and Mann-Whitney two-tailed test were used for paired and unpaired data analysis, respectively. A p value<0.05 was considered significant. Cumulative response rates were calculated using the cumulative incidence approach and Mantle-Cox method. The cut-off point for innate CD8(+) T-cells was optimized by receiver operating characteristics (ROC) curves and the Youden index using the logarithm of innate CD8(+) T-cell frequency at diagnosis and after 3 months of therapy. Patients were dichotomized according to their low or high percentage of innate CD8(+) T-cells. Data are presented as Kaplan-Meier curves.

[1] = after 3 months of therapy as compared to diagnosis

Cc1nc(Nc2ncc(C(=O)Nc3c(C)cccc3Cl)s2)cc(N2CCN(CCO)CC2)n1 [dasatinib, N-(2-chloro-6-methylphenyl)-2-[[6-[4-(2-hydroxyethyl)-1-piperazinyl]-2-methyl-4-pyrimidinyl]amino]-5-thiazole-carboxamide monohydrate]
innate CD8(+) T-cell frequency (mean±SD) (M12-DMR group (DMR achieved at 12 months)): 9.14±6.54% | innate CD8(+) T-cell frequency (mean±SD) (M12-noDMR group (no DMR at 12 months)): 3.48±2.43% | frequency of innate CD8(+) T-cells (mean±SD) (CML patients, whole group, after 3 months of therapy, among total CD8+TCR-αβ+ cells, 3.78±3.39% at diagnosis): 5.98±5.43% | Eomes and CD49d expression levels of innate CD8(+) T-cells [1]: significant increase | conventional-memory CD8(+) T-cell frequency [1]: concomitantly increased | naive CD8(+) T-cell frequency [1]: decreased
